Measured values taken from PubChem BioAssay AID2060510 (Molecular Pharmacology Branch, DTP, NCI, 2025).

System: 439559-082-T-J2-PDC spheroids viability
Test: Anticancer human tumor 439559-082-T-J2-PDC patient-derived colon adenocarcinoma cell line growth inhibition [GQUAD]
Conditions: for IC50: curve of first compound; for viability, T/C: stronger effect = lower value
In short: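 Multi-cell-type spheroids of tumor cells with HUVEC and mesenchymal stem cells, treated with drug combinations. Concentrations descend in half-log steps from near clinical Cmax, or from 10 microM where Cmax is unknown; viability read-out.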

[1] = second compound 0.0316 µM, first compound 0.0316 µM
[2] = second compound 0.0316 µM, first compound 0.1 µM
[3] = second compound 0.0316 µM, first compound 0.316 µM
[4] = second compound 0.0316 µM, first compound 1 µM
[5] = second compound 0.0316 µM, first compound 3.16 µM
[6] = second compound 0.0316 µM, first compound 10 µM
[7] = second compound 0.1 µM, first compound 0.0316 µM
[8] = second compound 0.1 µM, first compound 0.1 µM
[9] = second compound 0.1 µM, first compound 0.316 µM
[10] = second compound 0.1 µM, first compound 1 µM
[11] = second compound 0.1 µM, first compound 3.16 µM
[12] = second compound 0.1 µM, first compound 10 µM
[13] = second compound 0.316 µM, first compound 0.0316 µM
[14] = second compound 0.316 µM, first compound 0.1 µM
[15] = second compound 0.316 µM, first compound 0.316 µM
[16] = second compound 0.316 µM, first compound 1 µM
[17] = second compound 0.316 µM, first compound 3.16 µM
[18] = second compound 0.316 µM, first compound 10 µM
[19] = second compound 1 µM, first compound 0.0316 µM
[20] = second compound 1 µM, first compound 0.1 µM
[21] = second compound 1 µM, first compound 0.316 µM
[22] = second compound 1 µM, first compound 1 µM
[23] = second compound 1 µM, first compound 3.16 µM
[24] = second compound 1 µM, first compound 10 µM
[25] = second compound 3.16 µM, first compound 0.0316 µM
[26] = second compound 3.16 µM, first compound 0.1 µM
[27] = second compound 3.16 µM, first compound 0.316 µM
[28] = second compound 3.16 µM, first compound 1 µM
[29] = second compound 3.16 µM, first compound 3.16 µM
[30] = second compound 3.16 µM, first compound 10 µM
[31] = second compound 10 µM, first compound 0.0316 µM
[32] = second compound 10 µM, first compound 0.1 µM
[33] = second compound 10 µM, first compound 0.316 µM
[34] = second compound 10 µM, first compound 1 µM
[35] = second compound 10 µM, first compound 3.16 µM
[36] = second compound 10 µM, first compound 10 µM
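Also: spheroids exposed to the agents for 7 days before readout.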
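For viability, T/C in this document: percent of luminescence signal in DMSO vehicle wells taken as 100% viability.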

C=CCn1c(=O)c2cnc(Nc3ccc(N4CCN(C)CC4)cc3)nc2n1-c1cccc(C(C)(C)O)n1 + CN(C)c1ccc(Nc2c3ccc(NC(=O)CCN4CCCC4)cc3nc3cc(NC(=O)CCN4CCCC4)ccc23)cc1
IC50 (second compound 0.0316 µM): 4710 nM
IC50 (second compound 0.1 µM): 3410 nM
IC50 (second compound 0.316 µM): 4010 nM
IC50 (second compound 1 µM): 3540 nM
IC50 (second compound 3.16 µM): 4040 nM
IC50 (second compound 10 µM): 3410 nM
viability, T/C [1]: 95%
viability, T/C [2]: 89.5%
viability, T/C [3]: 85.1%
viability, T/C [4]: 82.1%
viability, T/C [5]: 63.3%
viability, T/C [6]: 24.8%
viability, T/C [7]: 94.7%
viability, T/C [8]: 97.9%
viability, T/C [9]: 85%
viability, T/C [10]: 69.4%
viability, T/C [11]: 54.4%
viability, T/C [12]: 20.9%
viability, T/C [13]: 99.3%
viability, T/C [14]: 101%
viability, T/C [15]: 82.7%
viability, T/C [16]: 81%
viability, T/C [17]: 55.7%
viability, T/C [18]: 24.5%
viability, T/C [19]: 101%
viability, T/C [20]: 96.7%
viability, T/C [21]: 88.6%
viability, T/C [22]: 74.9%
viability, T/C [23]: 54.5%
viability, T/C [24]: 18.2%
viability, T/C [25]: 96.2%
viability, T/C [26]: 97.8%
viability, T/C [27]: 93.9%
viability, T/C [28]: 89.3%
viability, T/C [29]: 58.5%
viability, T/C [30]: 18.2%
viability, T/C [31]: 94.3%
viability, T/C [32]: 90.9%
viability, T/C [33]: 78.2%
viability, T/C [34]: 76.2%
viability, T/C [35]: 53.1%
viability, T/C [36]: 13.3%

CC(C)(O)C1CCC(Nc2ccc3ncc(-c4cccc(C(F)(F)F)c4)n3n2)CC1 (stereo not drawn) + CN(C)c1ccc(Nc2c3ccc(NC(=O)CCN4CCCC4)cc3nc3cc(NC(=O)CCN4CCCC4)ccc23)cc1
IC50 (second compound 0.0316 µM): 1600 nM
IC50 (second compound 0.1 µM): 1650 nM
IC50 (second compound 0.316 µM): 1820 nM
IC50 (second compound 1 µM): 1660 nM
IC50 (second compound 3.16 µM): 1780 nM
IC50 (second compound 10 µM): 1580 nM
viability, T/C [1]: 92.7%
viability, T/C [2]: 94.7%
viability, T/C [3]: 94%
viability, T/C [4]: 78.1%
viability, T/C [5]: 8.9%
viability, T/C [6]: 9%
viability, T/C [7]: 117%
viability, T/C [8]: 111%
viability, T/C [9]: 108%
viability, T/C [10]: 77.5%
viability, T/C [11]: 13.9%
viability, T/C [12]: 10.1%
viability, T/C [13]: 104%
viability, T/C [14]: 96.9%
viability, T/C [15]: 91.8%
viability, T/C [16]: 90.3%
viability, T/C [17]: 12.7%
viability, T/C [18]: 10.6%
viability, T/C [19]: 98.8%
viability, T/C [20]: 101%
viability, T/C [21]: 107%
viability, T/C [22]: 82.1%
viability, T/C [23]: 7.17%
viability, T/C [24]: 11.9%
viability, T/C [25]: 98.8%
viability, T/C [26]: 101%
viability, T/C [27]: 103%
viability, T/C [28]: 89%
viability, T/C [29]: 7.84%
viability, T/C [30]: 13.6%
viability, T/C [31]: 100%
viability, T/C [32]: 110%
viability, T/C [33]: 109%
viability, T/C [34]: 77.1%
viability, T/C [35]: 9.39%
viability, T/C [36]: 7.34%

Cc1[nH]c2ccccc2c1CCNCc1ccc(/C=C/C(=O)NO)cc1 + CN(C)c1ccc(Nc2c3ccc(NC(=O)CCN4CCCC4)cc3nc3cc(NC(=O)CCN4CCCC4)ccc23)cc1
IC50 (second compound 0.0316 µM): > 316 nM
IC50 (second compound 0.1 µM): > 316 nM
IC50 (second compound 0.316 µM): > 316 nM
IC50 (second compound 1 µM): > 316 nM
IC50 (second compound 3.16 µM): > 316 nM
IC50 (second compound 10 µM): > 316 nM
viability, T/C (second compound 0.0316 µM, first compound 0.000999 µM): 105%
viability, T/C (second compound 0.0316 µM, first compound 0.00316 µM): 86.9%
viability, T/C (second compound 0.0316 µM, first compound 0.00999 µM): 91.8%
viability, T/C [1]: 87.3%
viability, T/C (second compound 0.0316 µM, first compound 0.0999 µM): 84.7%
viability, T/C [3]: 63.6%
viability, T/C (second compound 0.1 µM, first compound 0.000999 µM): 110%
viability, T/C (second compound 0.1 µM, first compound 0.00316 µM): 102%
viability, T/C (second compound 0.1 µM, first compound 0.00999 µM): 101%
viability, T/C [7]: 83.9%
viability, T/C (second compound 0.1 µM, first compound 0.0999 µM): 83.8%
viability, T/C [9]: 60.9%
viability, T/C (second compound 0.316 µM, first compound 0.000999 µM): 93.6%
viability, T/C (second compound 0.316 µM, first compound 0.00316 µM): 91.3%
viability, T/C (second compound 0.316 µM, first compound 0.00999 µM): 85.5%
viability, T/C [13]: 76.4%
viability, T/C (second compound 0.316 µM, first compound 0.0999 µM): 80%
viability, T/C [15]: 62.3%
viability, T/C (second compound 1 µM, first compound 0.000999 µM): 99.1%
viability, T/C (second compound 1 µM, first compound 0.00316 µM): 99.1%
viability, T/C (second compound 1 µM, first compound 0.00999 µM): 99.9%
viability, T/C [19]: 86.9%
viability, T/C (second compound 1 µM, first compound 0.0999 µM): 78.5%
viability, T/C [21]: 64.1%
viability, T/C (second compound 3.16 µM, first compound 0.000999 µM): 93.8%
viability, T/C (second compound 3.16 µM, first compound 0.00316 µM): 89.4%
viability, T/C (second compound 3.16 µM, first compound 0.00999 µM): 88.5%
viability, T/C [25]: 79.2%
viability, T/C (second compound 3.16 µM, first compound 0.0999 µM): 75.3%
viability, T/C [27]: 60.8%
viability, T/C (second compound 10 µM, first compound 0.000999 µM): 96.1%
viability, T/C (second compound 10 µM, first compound 0.00316 µM): 95.7%
viability, T/C (second compound 10 µM, first compound 0.00999 µM): 97.9%
viability, T/C [31]: 84.7%
viability, T/C (second compound 10 µM, first compound 0.0999 µM): 83%
viability, T/C [33]: 68.9%

O=C(NO)c1cnc(N2CCN(S(=O)(=O)c3ccc4ccccc4c3)CC2)nc1 + CN(C)c1ccc(Nc2c3ccc(NC(=O)CCN4CCCC4)cc3nc3cc(NC(=O)CCN4CCCC4)ccc23)cc1
IC50 (second compound 0.0316 µM): 445 nM
IC50 (second compound 0.1 µM): 393 nM
IC50 (second compound 0.316 µM): 334 nM
IC50 (second compound 1 µM): 406 nM
IC50 (second compound 3.16 µM): 402 nM
IC50 (second compound 10 µM): 365 nM
viability, T/C [1]: 96.5%
viability, T/C [2]: 83.4%
viability, T/C [3]: 69.9%
viability, T/C [4]: 2.76%
viability, T/C [5]: 0.18%
viability, T/C [6]: 0.23%
viability, T/C [7]: 99.8%
viability, T/C [8]: 85.2%
viability, T/C [9]: 61.5%
viability, T/C [10]: 5.02%
viability, T/C [11]: 0.16%
viability, T/C [12]: 0.17%
viability, T/C [13]: 98.3%
viability, T/C [14]: 82%
viability, T/C [15]: 54.6%
viability, T/C [16]: 3.28%
viability, T/C [17]: 0.16%
viability, T/C [18]: 0.13%
viability, T/C [19]: 83.1%
viability, T/C [20]: 87.2%
viability, T/C [21]: 62.5%
viability, T/C [22]: 4.71%
viability, T/C [23]: 0.12%
viability, T/C [24]: 0.19%
viability, T/C [25]: 88.2%
viability, T/C [26]: 85.2%
viability, T/C [27]: 62.5%
viability, T/C [28]: 2.43%
viability, T/C [29]: 0.12%
viability, T/C [30]: 0.2%
viability, T/C [31]: 98.5%
viability, T/C [32]: 80.9%
viability, T/C [33]: 58.5%
viability, T/C [34]: 5.85%
viability, T/C [35]: 0.23%
viability, T/C [36]: 0.19%
